From BindingDB's records for doi:10.1016/s0960-894x(99)00666-6 (Merck Research Laboratories, 2000)

Target: Integrase (Human immunodeficiency virus 1, UniProt Q7ZJM1)
Experiment: ChEBML_90573
From the text: Inhibitory activity against HIV-1 integrase

Sequence of Integrase (Q7ZJM1 whole entry): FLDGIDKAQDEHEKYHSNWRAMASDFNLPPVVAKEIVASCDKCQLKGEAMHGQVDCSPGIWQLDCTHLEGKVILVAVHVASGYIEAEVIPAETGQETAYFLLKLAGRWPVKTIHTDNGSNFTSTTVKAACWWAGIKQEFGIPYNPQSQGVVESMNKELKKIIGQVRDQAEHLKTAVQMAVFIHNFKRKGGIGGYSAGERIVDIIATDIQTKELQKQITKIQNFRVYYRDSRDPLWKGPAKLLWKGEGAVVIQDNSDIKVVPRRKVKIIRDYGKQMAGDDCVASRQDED

- IC50: 3 µM
Structure (SMILES): CCCCC(C)/C=C(\C)C(=O)O[C@@H]1CC[C@H](C(=O)O)[C@@]2(C)CC(=C(C)C=O)C(=O)C=C12 (stereo partly drawn) [(1S,4R,7S,8aR)-4-((E)-2,4-Dimethyl-oct-2-enoyloxy)-7-(1-formyl-vinyl)-8a-methyl-6-oxo-1,2,3,4,6,7,8,8a-octahydro-naphthalene-1-carboxylic acid]
